Experimental data: PubChem BioAssay AID1259407 (Chemical Carcinogenesis Research Information System (CCRIS), 2018)
Active and inactive are the calls of the source. No rule for the calls is given here.

Test system: CCRIS mutagenicity, Ames/micronucleus/aberration tests
Assay: CCRIS mutagenicity studies
[1] = Test System: AMES SALMONELLA TYPHIMURIUM, Strain/Indicator: TA98, Metabolic Activation: NONE, Method: STANDARD PLATE
[2] = Test System: AMES SALMONELLA TYPHIMURIUM, Strain/Indicator: TA98, Metabolic Activation: RAT, LIVER, S-9, AROCLOR 1254, Method: STANDARD PLATE
[3] = Test System: AMES SALMONELLA TYPHIMURIUM, Strain/Indicator: TA100, Metabolic Activation: NONE, Method: STANDARD PLATE
[4] = Test System: AMES SALMONELLA TYPHIMURIUM, Strain/Indicator: TA98, Metabolic Activation: NONE, Method: PREINCUBATION

CN(N=O)c1ccccc1
mutagenic call (Test System: AMES SALMONELLA TYPHIMURIUM, Strain/Indicator: HISG428, Metabolic Activation: RAT, LIVER, S-9, AROCLOR 1254, Method: PREINCUBATION): inactive; negative
mutagenic call (Test System: AMES SALMONELLA TYPHIMURIUM, Strain/Indicator: TA100, Metabolic Activation: RAT, LIVER, S-9, AROCLOR 1254, Method: PREINCUBATION): active; positive
mutagenic call (Test System: AMES SALMONELLA TYPHIMURIUM, Strain/Indicator: TA104, Metabolic Activation: RAT, LIVER, S-9, AROCLOR 1254, Method: PREINCUBATION): active; positive
mutagenic call (Test System: AMES SALMONELLA TYPHIMURIUM, Strain/Indicator: TA1537, Metabolic Activation: RAT, LIVER, S-9, PHENOBARBITAL, Method: STANDARD PLATE): inactive; negative
mutagenic call (Test System: AMES SALMONELLA TYPHIMURIUM, Strain/Indicator: TA1537, Metabolic Activation: RAT, LIVER, S-9, PYRAZOLE, Method: STANDARD PLATE): active; positive
mutagenic call (Test System: AMES SALMONELLA TYPHIMURIUM, Strain/Indicator: TA1537, Metabolic Activation: RAT, LIVER, S-9, Method: LIQUID INCUBATION): active; positive
mutagenic call (Test System: AMES SALMONELLA TYPHIMURIUM, Strain/Indicator: TA2638, Metabolic Activation: RAT, LIVER, S-9, AROCLOR 1254, Method: PREINCUBATION): active; positive
mutagenic call (Test System: AMES SALMONELLA TYPHIMURIUM, Strain/Indicator: TA2659, Metabolic Activation: RAT, LIVER, S-9, AROCLOR 1254, Method: PREINCUBATION): inactive; negative
mutagenic call (Test System: AMES SALMONELLA TYPHIMURIUM, Strain/Indicator: YG7108-2A6-OR, Metabolic Activation: NONE, Method: PREINCUBATION): active; positive
mutagenic call (Test System: AMES SALMONELLA TYPHIMURIUM, Strain/Indicator: YG7108-2A6, Metabolic Activation: NONE, Method: PREINCUBATION): active; positive
mutagenic call (Test System: AMES SALMONELLA TYPHIMURIUM, Strain/Indicator: YG7108-PCW, Metabolic Activation: NONE, Method: PREINCUBATION): inactive; negative
mutagenic call (Test System: AMES SALMONELLA TYPHIMURIUM, Strain/Indicator: YG7108, Metabolic Activation: RAT LIVER S-9, PHENOBARBITAL AND 5,6-BENZOFLAVONE, Method: PREINCUBATION): inactive; negative

CCC12OC1(C(=O)OC)C(=O)NC2(C)O (stereo unspecified)
mutagenic call (Test System: AMES SALMONELLA TYPHIMURIUM, Strain/Indicator: TA98, Metabolic Activation: NONE, Method: DISK ASSAY): inactive; negative
mutagenic call [1]: inactive; negative
mutagenic call (Test System: AMES SALMONELLA TYPHIMURIUM, Strain/Indicator: TA98, Metabolic Activation: RAT, LIVER, S-9, AROCLOR 1254, Method: DISK ASSAY): inactive; negative
mutagenic call [2]: active; positive

CCCCOc1c(C(=O)NOC(C)=O)cccc1[N+](=O)[O-]
mutagenic call [3]: inactive; negative
mutagenic call (Test System: AMES SALMONELLA TYPHIMURIUM, Strain/Indicator: TA100, Metabolic Activation: RAT, S-9, AROCLOR, Method: STANDARD PLATE): active; positive

CN(C)CCC(c1ccccc1)c1ccccn1 (stereo unspecified)
mutagenic call (Test System: AMES SALMONELLA TYPHIMURIUM, Strain/Indicator: TA98, Metabolic Activation: HAMSTER, LIVER, S-9, AROCLOR 1254 (10%), Method: PREINCUBATION): inactive; negative
mutagenic call [4]: inactive; negative
mutagenic call (Test System: AMES SALMONELLA TYPHIMURIUM, Strain/Indicator: TA98, Metabolic Activation: RAT, LIVER, S-9, AROCLOR 1254 (10%), Method: PREINCUBATION): inactive; negative
mutagenic call (Test System: AMES SALMONELLA TYPHIMURIUM, Strain/Indicator: TA100, Metabolic Activation: HAMSTER, LIVER, S-9, AROCLOR 1254 (10%), Method: PREINCUBATION): inactive; negative
mutagenic call (Test System: AMES SALMONELLA TYPHIMURIUM, Strain/Indicator: TA100, Metabolic Activation: NONE, Method: PREINCUBATION): inactive; negative
mutagenic call (Test System: AMES SALMONELLA TYPHIMURIUM, Strain/Indicator: TA100, Metabolic Activation: RAT, LIVER, S-9, AROCLOR 1254 (10%), Method: PREINCUBATION): inactive; negative
mutagenic call (Test System: AMES SALMONELLA TYPHIMURIUM, Strain/Indicator: TA1535, Metabolic Activation: HAMSTER, LIVER, S-9, AROCLOR 1254 (10%), Method: PREINCUBATION): inactive; negative
mutagenic call (Test System: AMES SALMONELLA TYPHIMURIUM, Strain/Indicator: TA1535, Metabolic Activation: NONE, Method: PREINCUBATION): inactive; negative
mutagenic call (Test System: AMES SALMONELLA TYPHIMURIUM, Strain/Indicator: TA1535, Metabolic Activation: RAT, LIVER, S-9, AROCLOR 1254 (10%), Method: PREINCUBATION): inactive; negative
mutagenic call (Test System: AMES SALMONELLA TYPHIMURIUM, Strain/Indicator: TA1537, Metabolic Activation: HAMSTER, LIVER, S-9, AROCLOR 1254 (10%), Method: PREINCUBATION): inactive; negative
mutagenic call (Test System: AMES SALMONELLA TYPHIMURIUM, Strain/Indicator: TA1537, Metabolic Activation: NONE, Method: PREINCUBATION): inactive; negative
mutagenic call (Test System: AMES SALMONELLA TYPHIMURIUM, Strain/Indicator: TA1537, Metabolic Activation: RAT, LIVER, S-9, AROCLOR 1254 (10%), Method: PREINCUBATION): inactive; negative

CC(=O)N[C@@H](CS)C(=O)O
mutagenic call (Test System: AMES SALMONELLA TYPHIMURIUM, Strain/Indicator: TA92, Metabolic Activation: NONE, Method: STANDARD PLATE): inactive; negative
mutagenic call (Test System: AMES SALMONELLA TYPHIMURIUM, Strain/Indicator: TA92, Metabolic Activation: RAT, KIDNEY, S-9, Method: STANDARD PLATE): active; positive
mutagenic call (Test System: AMES SALMONELLA TYPHIMURIUM, Strain/Indicator: TA97, Metabolic Activation: NONE, Method: STANDARD PLATE): inactive; negative
mutagenic call (Test System: AMES SALMONELLA TYPHIMURIUM, Strain/Indicator: TA97, Metabolic Activation: RAT, KIDNEY, S-9, Method: STANDARD PLATE): active; positive
mutagenic call (Test System: AMES SALMONELLA TYPHIMURIUM, Strain/Indicator: TA102, Metabolic Activation: NONE, Method: STANDARD PLATE): inactive; negative
mutagenic call (Test System: AMES SALMONELLA TYPHIMURIUM, Strain/Indicator: TA104, Metabolic Activation: NONE, Method: STANDARD PLATE): inactive; negative
mutagenic call (Test System: AMES SALMONELLA TYPHIMURIUM, Strain/Indicator: TA104, Metabolic Activation: RAT, KIDNEY, S-9, Method: STANDARD PLATE): active; positive
mutagenic call (Test System: CHINESE HAMSTER V-79, Strain/Indicator: V-79/6-THIOGUANINE, Metabolic Activation: NONE, Method: STANDARD PLATE): inactive; negative

O=[N+]([O-])c1ccc2c(c1)-c1cccc3cccc-2c13
mutagenic call [1]: active; positive

O=c1oc2cccc3ccc4c5ccccc5cc1c4c32
mutagenic call [1]: inactive; negative
mutagenic call [2]: active; positive
mutagenic call (Test System: AMES SALMONELLA TYPHIMURIUM, Strain/Indicator: TA100, Metabolic Activation: RAT, LIVER, S-9, AROCLOR 1254, Method: STANDARD PLATE): active; positive

Cn1c2ccccc2c2cc(N)ccc21
mutagenic call [1]: active; positive
mutagenic call (Test System: AMES SALMONELLA TYPHIMURIUM, Strain/Indicator: TA98, Metabolic Activation: RAT LIVER S-9, AROCLOR 1254, Method: STANDARD PLATE): active; positive
mutagenic call [3]: active; positive
mutagenic call (Test System: AMES SALMONELLA TYPHIMURIUM, Strain/Indicator: TA100, Metabolic Activation: RAT LIVER S-9, AROCLOR 1254, Method: STANDARD PLATE): active; positive

c1ccc2c(c1)-c1cc3ccccc3cc1[C@H]1O[C@@H]21
mutagenic call [4]: active; positive
mutagenic call [1]: active; positive
mutagenic call [3]: active; positive
mutagenic call (Test System: CHINESE HAMSTER V-79, Strain/Indicator: V-79/8-AZAGUANINE, Metabolic Activation: NONE, Method: STANDARD PLATE): active; positive
mutagenic call (Test System: UDS HUMAN FIBROBLASTS, Strain/Indicator: THY INCORP (NON-S-PHASE), Metabolic Activation: NONE, Method: AUTORADIOGRAPHY): active; positive
